Measured values from patent US8669249B2, “Poly (ADP-ribose) polymerase (PARP) inhibitors” (Takeda Pharmaceutical Company Limited, priority 2009, dated 2014).
pIC50: −log10 of the molar value.

Legend:
PARP = target: T1, PARP (Homo sapiens, UniProt P09874); assay: PARP ELISA (ELISA-based colorimetric PARP/Apoptosis Assay kit, Trevigen); assay type: biochemical; conditions: pIC50=-log10 IC50, IC50 in mol/L; inhibition of PARP catalytic activity
T1 construct: purchased Trevigen 4684-096-K HT (kit); 4684-096-01 (PARP enzyme)
Protocol: Inhibition Constant (IC50) from PARP ELISA
After 10 minutes of catalysis the reaction is quenched by solvent aspiration followed by irrigation of the assay wells 4 times with phosphate buffered saline (PBS) containing 0.1% t-Octylphenoxypolyethoxyethanol (Triton® X-100). Mouse Anti-poly ADP ribose (PAR) monoclonal antibody, goat antimouse immunoglobulin G (IgG)-horse radish peroxidase (HRP) conjugate and HRP substrate are added according to the manufacture's specifications to generate a colorimetric signal proportional to PARP catalytic activity.

Jurkat cell line = assay: PARP cellular chemopotentiation assay (MTS, with/without TMZ); assay type: cell-based; conditions: Chemopotentiation factor: ratio of EC50 values of Jurkat cells co-treated without and with 100 μM TMZ; 96 hours
Protocol: Potentiation Factor (PF50) Determination from PARP Cellular Chemopotentiation Assay
Jurkat cell line was maintained according to the supplier (American Type Culture Collection (Rockville, Md.)). Cells were seeded in 96-well tissue culture microplates at 10,000 cells per well and cultured for 24 hours prior to addition of compounds, TMZ (Temozolomide) or DMSO (dimethylsulfoxide) vehicle. After 96 hours of treatment, the conversion of MTS ([3-(4,5-dimethylthiazol-2-yl)-5-(3-carboxymethoxyphenyl)-2-(4-sulfophenyl)-2H-tetrazolium, inner salt], Promega, Madison, Wis.) by metabolically active cells was determined through measuring the OD490 nm with a Spectramax microplate reader (Molecular Devices, San Diego, Calif.). To generate concentration-response curves, cells were treated in duplicate with a range of serial compound dilutions (final DMSO concentration was 0.5%) in the absence or presence of 100 μM TMZ chemoreagent. The percentage of viable cells per well was calculated by correction for background and normalizing against DMSO-treated cells. EC50 values for inhibition of cell viability were calculated using XLfit4 MicroSoft Excel curve-fitting software. Chemopotentiation factor PF50 was calculated as the ratio of EC50 values of cells co-treated without and with TMZ, respectively.

[1] = target: T2, catalytic domain of Human PARP (Homo sapiens, UniProt P09874); assay: Biacore surface plasmon resonance affinity assay; assay type: binding; conditions: pKD=-log10 KD, KD in mol/L; Biacore T100, 25° C.; read-out: pKD (converted)
T2 construct: The catalytic domain of Human PARP was cloned and prepared; made in house
How it was run: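 Binding at 25° C on Biacore T100: 1 min compound association then 5 min dissociation (50 μL/min) over immobilized PARP catalytic domain, buffer HBS-P plus 1% DMSO, 0.5 mM TCEP, 5 mM MgCl2, 2-fold dilution series. KD derived as koff/kon from fitted association and dissociation phases.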

T2 sequence (P09874 788-1014 limits assumed): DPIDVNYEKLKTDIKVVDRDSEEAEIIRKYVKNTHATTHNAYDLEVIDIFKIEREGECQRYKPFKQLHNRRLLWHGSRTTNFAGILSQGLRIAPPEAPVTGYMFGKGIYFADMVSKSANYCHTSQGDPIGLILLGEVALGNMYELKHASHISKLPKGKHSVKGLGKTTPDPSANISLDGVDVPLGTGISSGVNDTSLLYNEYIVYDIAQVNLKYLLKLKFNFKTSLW
T1 sequence (P09874 whole entry): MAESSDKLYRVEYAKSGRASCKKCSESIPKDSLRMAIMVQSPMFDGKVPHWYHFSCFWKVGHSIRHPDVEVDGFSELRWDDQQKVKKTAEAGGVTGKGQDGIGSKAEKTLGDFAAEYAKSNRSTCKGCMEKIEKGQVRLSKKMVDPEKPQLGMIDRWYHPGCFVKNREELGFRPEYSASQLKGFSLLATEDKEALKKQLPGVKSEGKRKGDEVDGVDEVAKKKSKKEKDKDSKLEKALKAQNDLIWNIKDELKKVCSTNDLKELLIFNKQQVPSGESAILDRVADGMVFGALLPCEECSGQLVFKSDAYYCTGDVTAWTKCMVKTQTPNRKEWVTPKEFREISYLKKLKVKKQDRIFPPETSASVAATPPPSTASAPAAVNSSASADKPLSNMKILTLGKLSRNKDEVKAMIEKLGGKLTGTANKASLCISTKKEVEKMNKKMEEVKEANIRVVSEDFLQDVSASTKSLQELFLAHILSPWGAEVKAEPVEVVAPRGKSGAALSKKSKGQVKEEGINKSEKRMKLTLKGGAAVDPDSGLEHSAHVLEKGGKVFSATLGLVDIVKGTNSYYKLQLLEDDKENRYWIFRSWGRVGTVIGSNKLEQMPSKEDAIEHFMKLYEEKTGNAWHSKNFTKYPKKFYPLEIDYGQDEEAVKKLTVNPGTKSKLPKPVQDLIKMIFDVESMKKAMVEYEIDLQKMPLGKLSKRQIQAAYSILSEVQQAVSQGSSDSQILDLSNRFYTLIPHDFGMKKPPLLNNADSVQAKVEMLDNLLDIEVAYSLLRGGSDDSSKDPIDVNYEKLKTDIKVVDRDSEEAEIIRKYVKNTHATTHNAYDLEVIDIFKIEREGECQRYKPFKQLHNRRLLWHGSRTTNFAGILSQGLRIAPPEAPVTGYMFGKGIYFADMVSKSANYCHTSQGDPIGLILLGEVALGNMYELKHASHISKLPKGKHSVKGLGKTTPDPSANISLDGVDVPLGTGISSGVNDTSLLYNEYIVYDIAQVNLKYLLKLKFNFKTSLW

Structure (SMILES)	pIC50 (PARP)	Kd [1]	PF50 (Jurkat cell line)
CC1Oc2c(Cl)cc(CN3CC=C(c4ccc(Cl)cc4)CC3)cc2NC1=O (centres unmarked) [Compound 166, 8-Chloro-6-((4-(4-chlorophenyl)-5,6-dihydropyridin-1(2H)-yl)methyl)-2-methyl-2H-benzo[b][1,4]oxazin-3(4H)-one]	≤ 6.90		1.0-1.9
CC1Oc2c(Cl)cc(CN3CCN(c4ccc(Cl)cc4)CC3)cc2NC1=O (centres unmarked) [Compound 167, 8-Chloro-6-((4-(4-chlorophenyl)piperazin-1-yl)methyl)-2-methyl-2H-benzo[b][1,4]oxazin-3(4H)-one]	7.00 to 7.40		≦0.9
CCNC(=O)c1ccc(N2CCN(Cc3cc(C)c4c(c3)NC(=O)C(C)O4)CC2)cc1 (centres unmarked) [Compound 258, 4-(4-((2,8-Dimethyl-3-oxo-3,4-dihydro-2H-benzo[b][1,4]oxazin-6-yl)methyl)piperazin-1-yl)-N-ethylbenzamide]	≥ 7.50		≧10.0
CNC(=O)c1ccc(N2CCN(Cc3cc(C)c4c(c3)NC(=O)C(C)O4)CC2)nc1 (centres unmarked) [Compound 260, 6-(4-((2,8-Dimethyl-3-oxo-3,4-dihydro-2H-benzo[b][1,4]oxazin-6-yl)methyl)piperazin-1-yl)-N-methylnicotinamide]		≤ 10 nM	2.0-9.9
Cc1cc(CN2CCN(c3ccc(C(=O)NC4CC4)cn3)CC2)cc2c1OC(C)C(=O)N2 (centres unmarked) [Compound 262, N-Cyclopropyl-6-(4-((2,8-dimethyl-3-oxo-3,4-dihydro-2H-benzo[b][1,4]oxazin-6-yl)methyl)piperazin-1-yl)nicotinamide]		≤ 10 nM	2.0-9.9
CC1Oc2c(F)cc(CN3CCN(c4ccc(C#N)cc4)CC3)cc2NC1=O (centres unmarked) [Compound 266, 4-(4-((8-Fluoro-2-methyl-3-oxo-3,4-dihydro-2H-benzo[b][1,4]oxazin-6-yl)methyl)piperazin-1-yl)benzonitrile]		≤ 10 nM	≦0.9
CCOC(=O)c1ccc(N2CCN(Cc3cc(Cl)c4c(c3)NC(=O)C(C)O4)CC2)cc1 (centres unmarked) [Compound 306, Ethyl 4-(4-((8-chloro-2-methyl-3-oxo-3,4-dihydro-2H-benzo[b][1,4]oxazin-6-yl)methyl)piperazin-1-yl)benzoate]	7.10		1.3
CNC(=O)c1ccc(N2CCN(Cc3cc(Cl)c4c(c3)NC(=O)C(C)O4)CC2)cc1 (centres unmarked) [Compound 308, 4-(4-((8-Chloro-2-methyl-3-oxo-3,4-dihydro-2H-benzo[b][1,4]oxazin-6-yl)methyl)piperazin-1-yl)-N-methylbenzamide]	7.70		6.3

More lines, main results first:

pIC50 (PARP)	Kd [1]	Structure (SMILES)	PF50 (Jurkat cell line)
≤ 6.90		CC(=O)c1ccc(N2CCN(Cc3ccc4c(c3)NC(=O)C(C)O4)CC2)cc1 (centres unmarked) [Compound 218, 6-((4-(4-Acetylphenyl)piperazin-1-yl)methyl)-2-methyl-2H-benzo[b][1,4]oxazin-3(4H)-one]	≦0.9
7.00 to 7.40		CC1Oc2ccc(CN3CCN(c4ccc(C(=O)NCC5CC5)cc4)CC3)cc2NC1=O (centres unmarked) [Compound 226, N-(Cyclopropylmethyl)-4-(4-((2-methyl-3-oxo-3,4-dihydro-2H-benzo[b][1,4]oxazin-6-yl)methyl)piperazin-1-yl)benzamide]	≦0.9
≥ 7.50		CCNC(=O)c1ccc(N2CCN(Cc3ccc4c(c3)NC(=O)[C@H](C)O4)CC2)cc1 [Compound 249, (S)-N-Ethyl-4-(4-((2-methyl-3-oxo-3,4-dihydro-2H-benzo[b][1,4]oxazin-6-yl)methyl)piperazin-1-yl)benzamide]	1.0-1.9
≥ 7.50		CCNC(=O)c1ccc(N2CCN(Cc3ccc4c(c3)NC(=O)[C@@H](C)O4)CC2)cc1 [Compound 250, (R)-N-Ethyl-4-(4-((2-methyl-3-oxo-3,4-dihydro-2H-benzo[b][1,4]oxazin-6-yl)methyl)piperazin-1-yl)benzamide]	2.0-9.9
8.30		CCNC(=O)c1ccc(N2CCN(Cc3cc(Cl)c4c(c3)NC(=O)C(C)O4)CC2)cc1 (centres unmarked) [Compound 309, 4-(4-((8-Chloro-2-methyl-3-oxo-3,4-dihydro-2H-benzo[b][1,4]oxazin-6-yl)methyl)piperazin-1-yl)-N-ethylbenzamide]	5.2
